Test system: MV-4-11 cells
Assay: Gene expression microarray analysis (Affymetrix PrimeView) and GSEA
Assay type: cell-based, human
Design: RFU PODN (11730768_x_at) / Fold change /veh PODN (11730768_x_at) / RFU LINC00158 (11744669_a_at) / Fold change /veh LINC00158 (11744669_a_at) / RFU DUSP10 (11751237_a_at) / Fold change /veh DUSP10 (11751237_a_at) / RFU ID3 (11757404_x_at) / Fold change /veh ID3 (11757404_x_at) / RFU PLEKHG5 (11737974_s_at) / Fold change /veh PLEKHG5 (11737974_s_at) / RFU LRRC4B (11730491_at) / Fold change /veh LRRC4B (11730491_at) / RFU GIMAP4 (11747438_a_at) / Fold change /veh GIMAP4 (11747438_a_at) / RFU KRT8 (11758183_x_at) / Fold change /veh KRT8 (11758183_x_at) / RFU CNN1 (11734310_a_at) / Fold change /veh CNN1 (11734310_a_at) / RFU VPS37D (11726825_at) / Fold change /veh VPS37D (11726825_at) / RFU C10orf10 (11716522_x_at) / Fold change /veh C10orf10 (11716522_x_at) / RFU KIR2DL2 /// KIR2DL4 /// KIR2DL5A /// KIR2DL5B /// KIR2DS1 /// KIR2DS2 /// KIR2DS3 /// KIR2DS4 /// KIR3DL3 /// KIR3DL3 /// KIR3DS1 (11738374_at) / Fold change /veh KIR2DL2 /// KIR2DL4 /// KIR2DL5A /// KIR2DL5B /// KIR2DS1 /// KIR2DS2 /// KIR2DS3 /// KIR2DS4 /// KIR3DL3 /// KIR3DL3 /// KIR3DS1 (11738374_at) / RFU C1QL1 (11718748_at) / Fold change /veh C1QL1 (11718748_at) / RFU TMPRSS4 (11747572_a_at) / Fold change /veh TMPRSS4 (11747572_a_at) / RFU HAMP (11756126_x_at) / Fold change /veh HAMP (11756126_x_at) / RFU RNFT2 (11725882_a_at) / Fold change /veh RNFT2 (11725882_a_at) / RFU NR4A2 (11747474_a_at) / Fold change /veh NR4A2 (11747474_a_at) / RFU ABCC12 (11746883_a_at) / Fold change /veh ABCC12 (11746883_a_at) / RFU TMEM136 (11760407_x_at) / Fold change /veh TMEM136 (11760407_x_at) / RFU CLDN22 /// WWC2 (11732394_at) / Fold change /veh CLDN22 /// WWC2 (11732394_at) / RFU HLA-DPB1 (11760878_x_at) / Fold change /veh HLA-DPB1 (11760878_x_at) / RFU SPINT1 (11716480_a_at) / Fold change /veh SPINT1 (11716480_a_at) / RFU GAP43 (11754022_s_at) / Fold change /veh GAP43 (11754022_s_at) / RFU A4GNT (11735810_at) / Fold change /veh A4GNT (11735810_at) / RFU PRB3 (11715151_x_at) / Fold change /veh PRB3 (11715151_x_at) / RFU TUBB4B (11761932_at) / Fold change /veh TUBB4B (11761932_at) / RFU CAPN14 (11732068_a_at) / Fold change /veh CAPN14 (11732068_a_at) / RFU TMCC2 (11721928_a_at) / Fold change /veh TMCC2 (11721928_a_at) / RFU IRGQ (11745062_a_at) / Fold change /veh IRGQ (11745062_a_at) / RFU FAM174B (11720279_a_at) / Fold change /veh FAM174B (11720279_a_at) / RFU TMPRSS4 (11748680_a_at) / Fold change /veh TMPRSS4 (11748680_a_at) / RFU FAM212B (11763350_a_at) / Fold change /veh FAM212B (11763350_a_at) / RFU PLEKHG5 (11743358_a_at) / Fold change /veh PLEKHG5 (11743358_a_at) / RFU ZSCAN30 (11745921_a_at) / Fold change /veh ZSCAN30 (11745921_a_at) / RFU CMKLR1 (11741424_a_at) / Fold change /veh CMKLR1 (11741424_a_at) / RFU LOC101060620 /// MAPK8IP1 (11723275_at) / Fold change /veh LOC101060620 /// MAPK8IP1 (11723275_at) / RFU SPTSSB (11747773_x_at) / Fold change /veh SPTSSB (11747773_x_at) / RFU PRSS12 (11739890_at) / Fold change /veh PRSS12 (11739890_at) / RFU BIN1 (11741810_x_at) / Fold change /veh BIN1 (11741810_x_at) / RFU WNT11 (11732464_a_at) / Fold change /veh WNT11 (11732464_a_at) / RFU C10orf10 (11716521_a_at) / Fold change /veh C10orf10 (11716521_a_at) / RFU C5orf56 (11738089_at) / Fold change /veh C5orf56 (11738089_at) / RFU CYB561 (11721691_x_at) / Fold change /veh CYB561 (11721691_x_at) / RFU ANKRD19P (11752326_a_at) / Fold change /veh ANKRD19P (11752326_a_at) / RFU OR2T12 /// OR2T33 /// OR2T8 (11738714_s_at) / Fold change /veh OR2T12 /// OR2T33 /// OR2T8 (11738714_s_at) / RFU VCAN (11748164_a_at) / Fold change /veh VCAN (11748164_a_at) / RFU JSRP1 (11732532_at) / Fold change /veh JSRP1 (11732532_at) / RFU KRTAP10-11 (11738290_x_at) / Fold change /veh KRTAP10-11 (11738290_x_at) / RFU MYO3A (11730013_a_at) / Fold change /veh MYO3A (11730013_a_at) / RFU EBF3 (11725865_a_at) / Fold change /veh EBF3 (11725865_a_at) / RFU CAMK2N1 (11719241_x_at) / Fold change /veh CAMK2N1 (11719241_x_at) / RFU C5orf56 (11738088_a_at) / Fold change /veh C5orf56 (11738088_a_at) / RFU OLFML3 (11715873_a_at) / Fold change /veh OLFML3 (11715873_a_at) / RFU LOC100653217 /// NTM (11731650_a_at) / Fold change /veh LOC100653217 /// NTM (11731650_a_at) / RFU MAPK11 (11762145_a_at) / Fold change /veh MAPK11 (11762145_a_at) / RFU FIZ1 (11724087_x_at) / Fold change /veh FIZ1 (11724087_x_at) / RFU OASL (11726364_x_at) / Fold change /veh OASL (11726364_x_at) / RFU SOX15 (11748057_x_at) / Fold change /veh SOX15 (11748057_x_at) / RFU CD79A (11719716_a_at) / Fold change /veh CD79A (11719716_a_at) / RFU HIST1H1D (11736915_at) / Fold change /veh HIST1H1D (11736915_at) / RFU CASKIN2 (11723855_a_at) / Fold change /veh CASKIN2 (11723855_a_at) / RFU LOC730098 (11760151_x_at) / Fold change /veh LOC730098 (11760151_x_at) / RFU OR4N2 (11742367_at) / Fold change /veh OR4N2 (11742367_at) / RFU PRRT2 (11749266_a_at) / Fold change /veh PRRT2 (11749266_a_at) / RFU SNX32 (11753110_a_at) / Fold change /veh SNX32 (11753110_a_at) / RFU CDHR5 (11726645_a_at) / Fold change /veh CDHR5 (11726645_a_at) / RFU RCAN1 (11760418_a_at) / Fold change /veh RCAN1 (11760418_a_at) / RFU FAM167A (11723789_a_at) / Fold change /veh FAM167A (11723789_a_at) / RFU FAM26E (11764081_at) / Fold change /veh FAM26E (11764081_at) / RFU ISYNA1 (11749810_s_at) / Fold change /veh ISYNA1 (11749810_s_at) / RFU ACY1 (11761880_at) / Fold change /veh ACY1 (11761880_at) / RFU 11764098_at / Fold change /veh 11764098_at / RFU SAMD14 (11745864_x_at) / Fold change /veh SAMD14 (11745864_x_at) / RFU NPB (11741838_a_at) / Fold change /veh NPB (11741838_a_at) / RFU TMPRSS6 (11731388_a_at) / Fold change /veh TMPRSS6 (11731388_a_at) / RFU KRTAP10-2 (11738614_at) / Fold change /veh KRTAP10-2 (11738614_at) / RFU ARHGAP8 /// PRR5-ARHGAP8 (11727945_x_at) / Fold change /veh ARHGAP8 /// PRR5-ARHGAP8 (11727945_x_at) / RFU KRTAP5-7 /// NADSYN1 (11734609_at) / Fold change /veh KRTAP5-7 /// NADSYN1 (11734609_at) / RFU RASL12 (11751679_a_at) / Fold change /veh RASL12 (11751679_a_at) / RFU CDKN2B (11736163_a_at) / Fold change /veh CDKN2B (11736163_a_at) / RFU PRF1 (11729649_at) / Fold change /veh PRF1 (11729649_at) / RFU, ZNF638 /// ZNF638-IT1 / Fold change vs veh, ZNF638 /// ZNF638-IT1 / RFU, PANK3 / Fold change vs veh, PANK3 / RFU, SH3YL1 / Fold change vs veh, SH3YL1 / RFU, ZEB2 / Fold change vs veh, ZEB2 / RFU, NRIP1 / Fold change vs veh, NRIP1 / RFU, PTTG1IP / Fold change vs veh, PTTG1IP / RFU, CAPN2 / Fold change vs veh, CAPN2 / RFU, MED14 / Fold change vs veh, MED14 / RFU, SNORA58 / Fold change vs veh, SNORA58 / RFU, C1orf63 / Fold change vs veh, C1orf63 / RFU, LRRFIP1 / Fold change vs veh, LRRFIP1 / RFU, NDUFAF7 / Fold change vs veh, NDUFAF7 / RFU, SLC12A2 / Fold change vs veh, SLC12A2 / RFU, IBTK / Fold change vs veh, IBTK / RFU, ESF1 / Fold change vs veh, ESF1 / Fold change vs veh, TMEM50B / RFU, TAOK1 / Fold change vs veh, TAOK1 / RFU, ACBD3 / Fold change vs veh, ACBD3 / RFU, TMA16 / Fold change vs veh, TMA16 / RFU, RWDD3 / Fold change vs veh, RWDD3 / RFU, BCAT1 / Fold change vs veh, BCAT1 / RFU, EDEM3 / Fold change vs veh, EDEM3 / RFU, TMEM33 / Fold change vs veh, TMEM33 / RFU, WDR75 / Fold change vs veh, WDR75 / RFU, AHCTF1 / Fold change vs veh, AHCTF1 / RFU, TFRC / Fold change vs veh, TFRC / RFU, ZDHHC17 / Fold change vs veh, ZDHHC17 / RFU, NOM1 / Fold change vs veh, NOM1 / RFU, ARL8B / Fold change vs veh, ARL8B / RFU, ZBTB11 / Fold change vs veh, ZBTB11 / RFU, TAMM41 / Fold change vs veh, TAMM41 / RFU, KIAA1704 /// LOC100996395 / Fold change vs veh, KIAA1704 /// LOC100996395 / RFU, ING1 / Fold change vs veh, ING1 / RFU, TRMT61B / Fold change vs veh, TRMT61B / RFU, FUBP3 / Fold change vs veh, FUBP3 / RFU, TP53 / Fold change vs veh, TP53 / RFU, TNKS2 / Fold change vs veh, TNKS2 / RFU, ZFP14 / Fold change vs veh, ZFP14 / RFU, ACTR2 / Fold change vs veh, ACTR2 / RFU, PPP3R1 / Fold change vs veh, PPP3R1 / RFU, PIK3R1 / Fold change vs veh, PIK3R1 / RFU, HNRNPA1 / Fold change vs veh, HNRNPA1 / RFU, RNF170 / Fold change vs veh, RNF170 / RFU, ZNF28 / Fold change vs veh, ZNF28 / RFU, RNGTT / Fold change vs veh, RNGTT / RFU, OGT / Fold change vs veh, OGT / RFU, BRD1 / Fold change vs veh, BRD1 / RFU, MARS / Fold change vs veh, MARS / RFU, ZNF655 / Fold change vs veh, ZNF655 / RFU, FAHD1 / Fold change vs veh, FAHD1 / RFU, BDP1 / Fold change vs veh, BDP1 / RFU, LRRCC1 / Fold change vs veh, LRRCC1 / RFU, ARID1A / Fold change vs veh, ARID1A / RFU, ZNF146 / Fold change vs veh, ZNF146 / RFU, ZNF330 / Fold change vs veh, ZNF330 / RFU, GPN3 / Fold change vs veh, GPN3 / RFU, C9orf123 / Fold change vs veh, C9orf123 / RFU, N4BP2L2 / Fold change vs veh, N4BP2L2 / RFU, ARFIP1 / Fold change vs veh, ARFIP1 / RFU, FAM179B / Fold change vs veh, FAM179B / RFU, BCL10 / Fold change vs veh, BCL10 / RFU, UHRF1BP1L / Fold change vs veh, UHRF1BP1L / RFU, BET1 / Fold change vs veh, BET1 / RFU, CNOT2 / Fold change vs veh, CNOT2 / RFU, ZNF268 / Fold change vs veh, ZNF268 / Fold change vs veh, ZNF507 / RFU, DGCR2 / Fold change vs veh, DGCR2 / RFU, WDSUB1 / Fold change vs veh, WDSUB1 / Fold change vs veh, HSP90B1 /// MIR3652 / RFU, ADSS / Fold change vs veh, ADSS / RFU, GK / Fold change vs veh, GK / RFU, ZNF148 / Fold change vs veh, ZNF148 / RFU, TAF9 / Fold change vs veh, TAF9 / RFU, SLC1A5 / Fold change vs veh, SLC1A5 / RFU, SLMO2 / Fold change vs veh, SLMO2 / RFU, ABCC4 / Fold change vs veh, ABCC4 / RFU, LOC101060439 /// RAP1B / Fold change vs veh, LOC101060439 /// RAP1B / RFU, RFX7 / Fold change vs veh, RFX7 / RFU, GTPBP10 / Fold change vs veh, GTPBP10 / RFU, CNEP1R1 / Fold change vs veh, CNEP1R1 / RFU, BIVM-ERCC5 /// ERCC5 / Fold change vs veh, BIVM-ERCC5 /// ERCC5 / RFU, ILF3 / Fold change vs veh, ILF3 / RFU 11762660_at / Fold change /veh 11762660_at / RFU VCAN (11757783_s_at) / Fold change /veh VCAN (11757783_s_at) / RFU DDX43 (11728927_at) / Fold change /veh DDX43 (11728927_at) / RFU KRT8 (11758188_x_at) / Fold change /veh KRT8 (11758188_x_at) / RFU NKD1 (11759106_at) / Fold change /veh NKD1 (11759106_at) / RFU SRD5A1 (11742802_a_at) / Fold change /veh SRD5A1 (11742802_a_at) / RFU TPSAB1 /// TPSB2 (11721975_s_at) / Fold change /veh TPSAB1 /// TPSB2 (11721975_s_at) / RFU GSTM3 (11746129_a_at) / Fold change /veh GSTM3 (11746129_a_at) / RFU IL23R (11737362_x_at) / Fold change /veh IL23R (11737362_x_at) / RFU TMEM51 (11727254_a_at) / Fold change /veh TMEM51 (11727254_a_at) / RFU PIWIL2 (11732686_x_at) / Fold change /veh PIWIL2 (11732686_x_at) / RFU ORM1 (11744905_x_at) / Fold change /veh ORM1 (11744905_x_at) / RFU CCDC152 (11743942_at) / Fold change /veh CCDC152 (11743942_at) / RFU ECM1 (11717891_a_at) / Fold change /veh ECM1 (11717891_a_at) / RFU IL23R (11748794_a_at) / Fold change /veh IL23R (11748794_a_at) / RFU TNFAIP8L3 (11732012_x_at) / Fold change /veh TNFAIP8L3 (11732012_x_at) / RFU MBOAT4 (11741988_at) / Fold change /veh MBOAT4 (11741988_at) / RFU 11764193_at / Fold change /veh 11764193_at / RFU TMEM53 (11763286_at) / Fold change /veh TMEM53 (11763286_at) / RFU MAGEB2 (11727129_at) / Fold change /veh MAGEB2 (11727129_at) / RFU TMEM200A (11744735_a_at) / Fold change /veh TMEM200A (11744735_a_at) / RFU CCDC152 (11751479_a_at) / Fold change /veh CCDC152 (11751479_a_at) / RFU FAM211A (11726209_a_at) / Fold change /veh FAM211A (11726209_a_at) / RFU RGS16 (11746705_a_at) / Fold change /veh RGS16 (11746705_a_at) / RFU VCAN (11755009_s_at) / Fold change /veh VCAN (11755009_s_at) / RFU RHOB (11743442_s_at) / Fold change /veh RHOB (11743442_s_at) / RFU RGS16 (11720943_a_at) / Fold change /veh RGS16 (11720943_a_at) / RFU RGS16 (11720944_at) / Fold change /veh RGS16 (11720944_at) / RFU, VPS4B / Fold change vs veh, VPS4B / RFU, CREB1 / Fold change vs veh, CREB1 / RFU, DNAJC13 / Fold change vs veh, DNAJC13 / RFU, GNAQ / Fold change vs veh, GNAQ / RFU, CDK5R1 / Fold change vs veh, CDK5R1 / RFU, ZRANB3 / Fold change vs veh, ZRANB3 / RFU, CUL4A / Fold change vs veh, CUL4A / RFU, CCNY / Fold change vs veh, CCNY / RFU, UFL1 / Fold change vs veh, UFL1 / RFU, COG3 / Fold change vs veh, COG3 / RFU, DIAPH2 / Fold change vs veh, DIAPH2 / RFU, SKA2 / Fold change vs veh, SKA2 / RFU, AFF3 / Fold change vs veh, AFF3 / RFU, LMF1 / Fold change vs veh, LMF1 / RFU, IPO11 / Fold change vs veh, IPO11 / RFU, DFFB / Fold change vs veh, DFFB / RFU, FOXP1 / Fold change vs veh, FOXP1 / RFU, CARD8 / Fold change vs veh, CARD8 / RFU, STRN3 / Fold change vs veh, STRN3 / RFU, ADK / Fold change vs veh, ADK / RFU, RASSF2 / Fold change vs veh, RASSF2 / RFU, WIPF1 / Fold change vs veh, WIPF1 / RFU, LARP1B / Fold change vs veh, LARP1B / RFU, RASA1 / Fold change vs veh, RASA1 / RFU, RB1 / Fold change vs veh, RB1 / RFU, PPFIA1 / Fold change vs veh, PPFIA1 / RFU, MAT2A / Fold change vs veh, MAT2A / RFU, CCT5 / Fold change vs veh, CCT5 / RFU, WDR92 / Fold change vs veh, WDR92 / RFU, CUX1 / Fold change vs veh, CUX1 / RFU, TTC7A / Fold change vs veh, TTC7A / RFU, TMEM135 / Fold change vs veh, TMEM135 / RFU, DEPTOR / Fold change vs veh, DEPTOR / RFU, CPM / Fold change vs veh, CPM / RFU, DNAJB6 / Fold change vs veh, DNAJB6 / RFU, CACNA2D3 / Fold change vs veh, CACNA2D3 / RFU, DTX4 / Fold change vs veh, DTX4 / RFU, TFCP2 / Fold change vs veh, TFCP2 / RFU, GMCL1 /// GMCL1P1 / Fold change vs veh, GMCL1 /// GMCL1P1 / RFU, AEBP2 / Fold change vs veh, AEBP2 / RFU, SNHG1 /// SNORD22 /// SNORD25 /// SNORD26 /// SNORD27 /// SNORD28 /// SNORD29 /// SNORD31 / Fold change vs veh, SNHG1 /// SNORD22 /// SNORD25 /// SNORD26 /// SNORD27 /// SNORD28 /// SNORD29 /// SNORD31 / Fold change (Aza/veh), C12orf56 (ProbeSet 11735607_a_at) / Fold change (ACY-1035/veh), C12orf56 (ProbeSet 11735607_a_at) / Fold change (Aza/veh), FGFR1OP (ProbeSet 11751329_s_at) / Fold change (ACY-1035/veh), FGFR1OP (ProbeSet 11751329_s_at) / Fold change (Aza/veh), VPS36 (ProbeSet 11739960_a_at) / Fold change (ACY-1035/veh), VPS36 (ProbeSet 11739960_a_at) / RFU SYPL1 (11715823_x_at) / Fold change /veh SYPL1 (11715823_x_at) / RFU IGFBP7 (11715501_s_at) / Fold change /veh IGFBP7 (11715501_s_at) / RFU REEP3 (11722064_at) / Fold change /veh REEP3 (11722064_at) / RFU IGLL1 (11728026_x_at) / Fold change /veh IGLL1 (11728026_x_at): dose or concentration left out as unconfirmed
Conditions: ProbeSet 11747889_x_at; LIST B

SMILES: Nc1ccc(-c2cccs2)cc1NC(=O)c1ccc2c(c1)cc(C1CC1)n2CCN1CCOCC1 [ACY-1035]
- RFU, SH3YL1: 65.52 RFU

From PMC5218480 (PLoS ONE, 2017)
